The values below come from US7507739B2, “6-[(substituted)phenyl]triazolopyrimidines as anticancer agents” (Wyeth, priority 2003, dated 2009).

Read-outs that look alike come from different tables or passages of the source.

One experiment has as its system HL-60 cells. Kind of experiment: MTS cytotoxicity test with HL-60 cells. To be noted: Homo sapiens. The format is cell-based. The source says:
(§1) Human cancer cell lines, unless otherwise noted, are obtained from the American Type Culture Collection (Rockville, Md.). The following drug-sensitive parental cell lines, and their derived drug-resistant counterparts, are obtained from the originators as listed: (a) S1 (parental line from a subclone of human colon carcinoma line LS174T) and derived S1-M1-3.2 (herein called S1-M1) which expresses the MXR drug transporter protein, are provided by Dr. L. Greenberger, Wyeth Research (Rabindran, S. K., He, H., Singh, M., Brown, E., Collins, K. I., Annable, T., and Greenberger, L. M. Reversal of a novel multidrug resistance mechanism in human colon carcinoma cells by fumitremorgin C. Cancer Res., 58:5850-5858,1998); (b) parental HL-60 human promyelocytic leukemia line and derived HL-60/ADR, which expresses the MRP1 drug transporter protein, are provided by Dr. M. Center, University of Kansas (McGrath, T., and Center, M. S. Adriamycin resistance in HL60 cells in the absence of detectable P-glycoprotein. Biochem. Biophys. […] J. Biol. Chem., 261: 7762-7770,1986) via Dr. L. Greenberger, Wyeth Research.
(§2) The assay, which is sold in kit form by Promega (Madison, Wis.; CellTiter 96 AQueous Non-Radioactive Cell Proliferation Assay), is based on the conversion by viable cells, but not by dead cells, of the tetrazolium salt, MTS (3-(4,5-dimethylthiazol-2-yl)-5-(3-carboxymethoxyphenyl)-2-(4-sulphophenyl)-2H-tetrazolium, inner salt), into a water-soluble colored formazan which is detected by spectrophotometry. Compounds are tested at nine concentrations, in order to determine IC50 values. For the test procedure, cells are harvested by trypsinization (or, in the case of non-adherent cells, by simple resuspension), washed, counted and distributed to wells of 96-well flat-bottom microtiter plates at 1000 cells per well in 200 μL of medium. In addition, one row of wells on a separate plate received cells as above (“time 0” plate). All plates are incubated at 37° in humidified 5% CO2 in air for about 24 hr.
(§3) On day 2, compounds for test are diluted and added to wells. Compounds are dissolved in DMSO at 10 mg/mL. For each compound, nine serial 2-fold dilutions are prepared in DMSO. Ten μL of each dilution in DMSO is transferred to 100 μL of medium, mixed well, and then 5 μL of this dilution is transferred in quadruplicate to wells containing cells. […] Plates are returned to the incubator for three days. At the time of drug addition to the experimental plates, the MTS assay is run on the “time 0” plate. This produced the “time 0 MTS value” which is related to the number of viable cells per well at the time of drug addition.
(§4) After three days of culture with test compounds (day 5 overall), the MTS assay is done on all wells of the experimental plates. The absorbance values of the quadruplicate sample wells are averaged and divided by the average of the “time 0” values. […] The nine values for each compound are plotted against concentration, and the concentration that produced a relative color yield half way between the maximum and minimum is taken as the IC50 value.
(§5) HL-60/ADR cells overexpress the multidrug resistance protein MRP1 which mediates resistance to some chemotherapeutics (Gottesman, M. M., Fojo, T., and Bates, S. E. Multidrug resistance in cancer: role of ATP-dependent transporters. Nature Rev. Cancer, 2: 48-58, 2002). The IC50 values of representative examples of this invention, as well as reference compounds, on HL-60/ADR are compared to values on the sensitive parental HL-60 line.
Background: Formazan colour is commonly taken as a measure of viable cells.

Another experiment has as its system COLO 205 cells. The experiment in a line: MTS cytotoxicity test with COLO 205 cells. The settings on record: 3 days. The format is cell-based, human. The gist of the method:
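COLO 205 human colon carcinoma cells, 1000 per well, exposed 3 days at 37° C to nine 2-fold dilutions, typical final top concentration 5 μM. MTS absorbance normalized to time-0 plate; IC50 is concentration giving colour yield midway between untreated and fully killed controls.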

The next experiment deals with HL-60/ADR cells. Kind of experiment: MTS cytotoxicity test with HL-60/ADR cells (MRP1). The format is cell-based, human. The settings on record: for IC50: Homo sapiens, HL60/ADR, read-out: IC50 HL-60/ADR; for Ratio: IC50 on HL-60/ADR cells/IC50 on HL-60 cells.
Description: as §1, §2, §3, §4, §5

The mark [1] stands for this setting: HL-60 cells, MTS, read-out: IC50 HL-60.

Consider `C[C@H](Nc1c(-c2c(F)cc(OCCCN(C)C)cc2F)c(Cl)nc2ncnn12)C(F)(F)F.Cl` [Example 1a, 5-chloro-6-{4-[3-(dimethylamino)propoxy]-2,6-difluorophenyl}-N-[(1S)-2,2,2-trifluoro-1-methylethyl][1,2,4]triazolo[1,5-a]pyrimidin-7-amine hydrogen chloride Salt], for which the IC50 was 0.071 µM with HL-60 cells (setting [1]); 0.056 µM in the experiment with COLO 205 cells (Homo sapiens, COLO 205, 72 h); 0.063 µM with HL-60/ADR cells. The Ratio with HL-60/ADR cells worked out at 0.89.

On to `CNCCCOc1cc(F)c(-c2c(Cl)nc3ncnn3c2C2CCCCCC2)c(F)c1.O=C(O)C(F)(F)F` [Example 32, 3-[4-(5-Chloro-7-cycloheptyl[1,2,4]triazolo[1,5-a]pyrimidin-6-yl)-3,5-difluorophenoxy]-N-methylpropan-1-amine trifluoroacetic acid salt], for which the IC50 in the experiment on HL-60 cells (setting [1]) stood at 0.0071 µM; in the experiment on COLO 205 cells (Homo sapiens, COLO 205, 72 h), 0.0066 µM; in the experiment on HL-60/ADR cells (HL-60/ADR cells, MTS), 0.0066 µM. In addition, the Ratio with HL-60/ADR cells amounted to 0.92.

On to `CC(=O)O[C@H]1C(=O)[C@@]2(C)[C@H]([C@H](OC(=O)c3ccccc3)[C@]3(O)C[C@H](OC(=O)[C@H](O)[C@@H](NC(=O)c4ccccc4)c4ccccc4)C(C)=C1C3(C)C)[C@]1(OC(C)=O)CO[C@@H]1C[C@@H]2O` [Paclitaxel, reference compound], for which the IC50 worked out at 0.0057 µM with HL-60 cells (setting [1]); 0.0033 µM in the experiment with COLO 205 cells (Homo sapiens, COLO 205, 72 h); 0.0064 µM with HL-60/ADR cells (HL-60/ADR cells, MTS). Besides, the Ratio in the experiment on HL-60/ADR cells was 1.1.

As to `C[C@H](Nc1c(-c2c(F)cc(OCCCO)cc2F)c(Cl)nc2ncnn12)C(F)(F)F` [Example 20, 3-[4-(5-Chloro-7-{[(1S)-2,2,2-trifluoro-1-methylethyl]amino}[1,2,4]triazolo[1,5-a]pyrimidin-6-yl)-3,5-difluorophenoxy]propan-1-ol], the IC50 in the experiment on HL-60 cells (setting [1]) was determined as 0.155 µM; in the experiment with COLO 205 cells (Homo sapiens, COLO 205, 72 h) it was 0.067 µM; in the experiment on HL-60/ADR cells (HL-60/ADR cells, MTS), 0.074 µM. Also, the Ratio in the experiment with HL-60/ADR cells came out at 0.48.

For the compound `CC[C@]1(O)C[C@H]2CN(CCc3c([nH]c4ccccc34)[C@@](C(=O)OC)(c3cc4c(cc3OC)N(C=O)[C@H]3[C@@](O)(C(=O)OC)[C@H](OC(C)=O)[C@]5(CC)C=CCN6CC[C@]43[C@@H]65)C2)C1` [Vincristine, reference compound], the IC50 with HL-60 cells (setting [1]) amounted to 0.0025 µM; in the experiment with COLO 205 cells (Homo sapiens, COLO 205, 72 h), 0.0026 µM; with HL-60/ADR cells (HL-60/ADR cells, MTS), 0.02 µM. Besides, the Ratio with HL-60/ADR cells turned out to be 8.2.

In the case of `CNCCCOc1cc(F)c(-c2c(Cl)nc3ncnn3c2NCC(F)(F)F)c(F)c1.Cl` [Example 3a, 5-Chloro-6-{2,6-difluoro-4-[3-(methylamino)propoxy]phenyl}-N-(2,2,2-trifluoroethyl)[1,2,4]triazolo[1,5-a]pyrimidin-7-amine hydrogen chloride Salt], the IC50 in the experiment on HL-60 cells (setting [1]) was 0.026 µM; with COLO 205 cells it was 0.029 µM; in the experiment on HL-60/ADR cells (HL-60/ADR cells, MTS) it was 0.021 µM. The Ratio with HL-60/ADR cells came out at 0.81.

In the case of `OCCCOc1cc(F)c(-c2c(Cl)nc3ncnn3c2C2CCCCCC2)c(F)c1` [Example 30, 3-[4-(5-Chloro-7-cycloheptyl[1,2,4]triazolo[1,5-a]pyrimidin-6-yl)-3,5-difluorophenoxy]propan-1-ol], the IC50 in the experiment on HL-60 cells (setting [1]) is 0.055 µM; in the experiment with COLO 205 cells (Homo sapiens, COLO 205, 72 h), 0.03 µM; in the experiment with HL-60/ADR cells (HL-60/ADR cells, MTS), 0.052 µM. The Ratio in the experiment with HL-60/ADR cells came out at 0.94.

On to `CNCCCOc1cc(F)c(-c2c(Cl)nc3ncnn3c2N[C@@H](C)C(F)(F)F)c(F)c1.Cl` [Example 2a, 5-Chloro-6-{2,6-difluoro-4-[3-(methylamino)propoxy]phenyl}-N-[(1S)-2,2,2-trifluoro-1-methylethyl][1,2,4]triazolo[1,5-a]pyrimidin-7-amine hydrogen chloride], for which the IC50 is 0.043 µM with HL-60 cells (HL-60, read-out: IC50 HL-60); 0.031 µM in the experiment with COLO 205 cells; 0.047 µM in the experiment with HL-60/ADR cells. In addition, the Ratio in the experiment on HL-60/ADR cells is on record as 1.1.

As for `C[C@H](Nc1c(-c2c(F)cc(OCCCN(C)C)cc2F)c(Br)nc2ncnn12)C(F)(F)F` [Example 25, 5-Bromo-6-{4-[3-(dimethylamino)propoxy]-2,6-difluorophenyl}-N-[(1S)-2,2,2-trifluoro-1-methylethyl][1,2,4]triazolo[1,5-a]pyrimidin-7-amine], the IC50 with HL-60 cells (setting [1]) was found to be 0.104 µM; in the experiment with COLO 205 cells (Homo sapiens, COLO 205, 72 h) it was 0.096 µM; with HL-60/ADR cells (HL-60/ADR cells, MTS), 0.068 µM. Also, in the experiment with HL-60/ADR cells, the Ratio is on record as 0.65.

For the compound `CN(C)CCCOc1cc(F)c(-c2c(Cl)nc3ncnn3c2NCC(F)(F)F)c(F)c1.Cl` [Example 4a, 5-Chloro-6-{4-[3-(dimethylamino)propoxy]-2,6-difluorophenyl}-N-(2,2,2-trifluoroethyl)[1,2,4]triazolo[1,5-a]pyrimidin-7-amine Hydrogen chloride Salt], the IC50 with HL-60 cells (setting [1]) was 0.052 µM; in the experiment with COLO 205 cells (Homo sapiens, COLO 205, 72 h), 0.053 µM; in the experiment on HL-60/ADR cells (HL-60/ADR cells, MTS) it was 0.034 µM. Further, in the experiment with HL-60/ADR cells, the Ratio is on record as 0.65.
